Results from PMC12416685, “3-O-acetylrubiarbonol B preferentially targets EGFR and MET over rubiarbonol B to inhibit NSCLC cell growth” (PLOS One, 2025).

Assays:
Type in all cases: biochemical
AKT1 = AKT1 (Homo sapiens, UniProt P31749); experiment: ADP-Glo in vitro kinase assay; relative activity left at […]
EGFR = EGFR (Homo sapiens, UniProt P00533); experiment: ADP-Glo in vitro kinase assay
MET = MET (Homo sapiens, UniProt P08581); experiment: ADP-Glo in vitro kinase assay
MET, sequence (P08581 25-307): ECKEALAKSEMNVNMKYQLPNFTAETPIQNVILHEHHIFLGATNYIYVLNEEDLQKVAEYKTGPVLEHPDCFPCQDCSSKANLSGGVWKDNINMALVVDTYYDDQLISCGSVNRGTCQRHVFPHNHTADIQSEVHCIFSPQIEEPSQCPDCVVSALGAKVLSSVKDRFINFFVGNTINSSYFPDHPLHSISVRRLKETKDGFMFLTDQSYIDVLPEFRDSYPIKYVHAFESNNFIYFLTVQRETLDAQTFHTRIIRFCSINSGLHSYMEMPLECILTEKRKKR
MET, sequence (P08581 308-1390): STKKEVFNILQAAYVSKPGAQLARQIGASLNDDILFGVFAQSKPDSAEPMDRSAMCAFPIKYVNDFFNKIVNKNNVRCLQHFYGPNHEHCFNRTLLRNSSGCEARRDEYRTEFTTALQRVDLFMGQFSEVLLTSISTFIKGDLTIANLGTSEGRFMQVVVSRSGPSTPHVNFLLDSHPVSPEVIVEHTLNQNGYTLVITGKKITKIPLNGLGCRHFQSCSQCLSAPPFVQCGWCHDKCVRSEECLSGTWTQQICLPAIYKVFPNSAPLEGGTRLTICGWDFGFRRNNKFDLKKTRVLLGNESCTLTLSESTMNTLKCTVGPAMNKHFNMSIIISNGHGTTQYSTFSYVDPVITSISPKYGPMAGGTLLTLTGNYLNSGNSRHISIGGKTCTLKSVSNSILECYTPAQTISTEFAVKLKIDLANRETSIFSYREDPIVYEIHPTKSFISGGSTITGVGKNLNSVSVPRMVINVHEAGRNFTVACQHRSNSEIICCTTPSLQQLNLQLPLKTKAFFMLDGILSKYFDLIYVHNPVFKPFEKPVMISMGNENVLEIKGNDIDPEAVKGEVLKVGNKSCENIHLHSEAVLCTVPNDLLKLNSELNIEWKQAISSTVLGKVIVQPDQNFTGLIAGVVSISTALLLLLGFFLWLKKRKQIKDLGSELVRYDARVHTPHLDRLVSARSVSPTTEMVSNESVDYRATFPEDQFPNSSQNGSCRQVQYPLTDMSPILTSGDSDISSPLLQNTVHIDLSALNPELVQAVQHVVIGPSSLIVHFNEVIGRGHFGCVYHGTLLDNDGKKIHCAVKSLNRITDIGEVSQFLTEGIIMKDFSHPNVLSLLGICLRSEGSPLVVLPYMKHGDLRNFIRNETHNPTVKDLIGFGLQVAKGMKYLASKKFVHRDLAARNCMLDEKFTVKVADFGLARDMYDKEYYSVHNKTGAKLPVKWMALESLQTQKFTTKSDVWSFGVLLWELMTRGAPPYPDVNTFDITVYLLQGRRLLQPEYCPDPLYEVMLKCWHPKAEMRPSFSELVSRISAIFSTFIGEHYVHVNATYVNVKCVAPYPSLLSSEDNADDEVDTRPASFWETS

AKT1, sequence (P31749 whole entry): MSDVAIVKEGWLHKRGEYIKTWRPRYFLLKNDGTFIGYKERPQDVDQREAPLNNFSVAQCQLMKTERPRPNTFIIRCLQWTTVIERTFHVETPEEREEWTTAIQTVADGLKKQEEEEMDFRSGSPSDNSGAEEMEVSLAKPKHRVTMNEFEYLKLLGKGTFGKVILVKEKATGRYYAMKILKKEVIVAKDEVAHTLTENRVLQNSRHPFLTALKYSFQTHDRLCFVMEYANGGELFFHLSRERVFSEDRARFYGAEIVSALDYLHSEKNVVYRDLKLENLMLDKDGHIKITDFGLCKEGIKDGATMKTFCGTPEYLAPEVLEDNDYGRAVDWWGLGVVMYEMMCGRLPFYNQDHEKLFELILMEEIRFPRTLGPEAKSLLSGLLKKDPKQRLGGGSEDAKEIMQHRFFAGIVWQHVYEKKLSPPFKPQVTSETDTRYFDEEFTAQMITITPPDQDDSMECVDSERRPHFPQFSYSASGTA
EGFR, sequence (P00533 25-1210): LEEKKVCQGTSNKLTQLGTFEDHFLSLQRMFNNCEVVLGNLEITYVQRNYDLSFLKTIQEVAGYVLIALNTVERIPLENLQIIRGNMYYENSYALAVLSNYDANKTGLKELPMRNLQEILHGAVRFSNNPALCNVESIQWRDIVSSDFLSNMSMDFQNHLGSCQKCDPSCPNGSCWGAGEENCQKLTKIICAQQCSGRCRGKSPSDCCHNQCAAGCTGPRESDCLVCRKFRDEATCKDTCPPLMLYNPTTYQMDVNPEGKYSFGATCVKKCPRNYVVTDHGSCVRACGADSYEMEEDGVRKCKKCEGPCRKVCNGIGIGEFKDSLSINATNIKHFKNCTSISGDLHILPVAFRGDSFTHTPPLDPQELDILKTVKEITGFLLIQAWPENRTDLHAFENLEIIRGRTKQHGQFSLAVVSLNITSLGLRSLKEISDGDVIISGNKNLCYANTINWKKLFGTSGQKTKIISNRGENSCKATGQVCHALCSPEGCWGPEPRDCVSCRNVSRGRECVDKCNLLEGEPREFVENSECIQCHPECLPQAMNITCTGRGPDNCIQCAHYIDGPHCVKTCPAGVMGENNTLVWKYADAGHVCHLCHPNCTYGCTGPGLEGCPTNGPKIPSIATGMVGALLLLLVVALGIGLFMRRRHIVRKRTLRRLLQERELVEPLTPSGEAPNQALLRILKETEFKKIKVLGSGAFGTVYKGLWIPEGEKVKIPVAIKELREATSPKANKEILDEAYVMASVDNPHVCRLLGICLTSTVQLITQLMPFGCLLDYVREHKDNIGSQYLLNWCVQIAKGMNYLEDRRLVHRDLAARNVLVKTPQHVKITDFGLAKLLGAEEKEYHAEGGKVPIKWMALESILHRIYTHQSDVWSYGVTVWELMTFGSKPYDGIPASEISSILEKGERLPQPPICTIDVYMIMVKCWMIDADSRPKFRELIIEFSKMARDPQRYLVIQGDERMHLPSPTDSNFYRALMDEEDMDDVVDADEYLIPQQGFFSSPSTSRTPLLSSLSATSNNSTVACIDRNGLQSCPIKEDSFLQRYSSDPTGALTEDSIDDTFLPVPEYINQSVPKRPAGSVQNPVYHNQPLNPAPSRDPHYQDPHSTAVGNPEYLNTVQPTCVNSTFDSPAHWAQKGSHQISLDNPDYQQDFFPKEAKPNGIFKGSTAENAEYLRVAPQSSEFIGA

Row | SMILES | activity at 8 µM (AKT1) [%] | IC50 (EGFR) [µM] | IC50 (MET) [µM]
1 | CC(=O)O[C@H]1CC[C@]2(C)C3=CC[C@]4(C)[C@H]5[C@H](O)C[C@@H](C(C)C)[C@]5(C)CC[C@@]4(C)[C@@H]3[C@@H](O)C[C@H]2C1(C)C [ARu-B, 3-O-acetylrubiarbonol B] | 58 | 3 | 1.7
2 | CC(C)[C@@H]1C[C@@H](O)[C@H]2[C@@]1(C)CC[C@@]1(C)[C@H]3C(=CC[C@]21C)[C@@]1(C)CC[C@H](O)C(C)(C)[C@@H]1C[C@@H]3O [Ru-B, rubiarbonol B] | 67.1 | 7.6 | 4.2
